According to US4666931A, “Benzofuran derivatives useful in treating diabetic complications” (Kaken Pharmaceutical Co., Ltd., priority 1984, dated 1987):
Where two headings read alike, the source gives them in different places.

What was measured:
[1] = Acute toxicity test in mice (oral); settings: mouse, in vivo, po
Procedure: (§1) Acute toxicity test in mice was carried out on the benzofuran derivatives of the compound Nos. 3, 5, 9, 21, 23, 26, 29 and 34.

mice = experiment: Acute toxicity test in mice (oral); settings: mice, oral; for death up to the dose of 3 g/kg body weight: up to 3 g/kg
Procedure: as §1

[2] = target: T1, aldose reductase from rat lens (Rattus norvegicus, UniProt P07943); experiment: Aldose reductase inhibiting activity; format: biochemical; settings: DL-glyceraldehyde substrate, Table 2, read-out: IC50 (50% inhibition concentration in M)
T1 construct: the supernatant was prepared as the crude enzyme solution; from tissue; host or cells: lens of male Wistar rats, 10,000 g supernatant of homogenate (crude enzyme)
Procedure: Wistar male rats were sacrificed by decapitation and the lenses were taken out to be homogenized with a 0.1M phosphate buffer [pH 6.8, containing 1 mM of mercaptoethanol and 1 mM of nicotinamide-adenine dinucleotide phosphate (NADP)]. The homogenate was then centrifuged at 10,000 g for 15 minutes and the supernatant was prepared as the crude enzyme solution.

[3] = system: production of malondialdehyde from arachidonic acid by rabbit platelets; experiment: Arachidonic acid metabolism inhibiting activity: production of malondialdehyde from arachidonic acid by rabbit platelets; format: cell-based; settings: Oryctolagus cuniculus, Platelet, arachidonic acid 0.2 mM, read-out: concentration showing 50% inhibition against the production of malondialdehyde from arachidonic acid
Procedure: Washed rabbit platelets prepared as in the platelet aggregation inhibiting activity test were suspended in 15 mM Tris-hydrochloric acid buffer with a final concentration of 1×10^8 cell/ml, to which each test compound of the compound Nos. 8, 13, 14, 19, 20, 23, 29, 30 and 33 were added and the resultant was preincubated at 37° C. for five minutes. Then arachidonic acid (a final concentration: 0.2 mM, made by Sigma Chemical Co.) was added thereto and the mixture was preincubated for 1 minute. An amount of the produced malondialdehyde was measured according to the thiobarbiturates method (Ed. Aoki and Shibata, Ketsuekigaku Kenkyukensaho, P 441 to 447).

cyclooxygenase = experiment: Cyclooxygenase inhibition: malondialdehyde production from arachidonic acid, 9000 G supernatant of lung homogenate from guinea pig; format: biochemical; settings: guinea pig lung 9000 G supernatant, compared with aspirin
Procedure: Lung from guinea pig was washed with physiological saline and homogenized in 0.1M Tris-hydrochloric acid buffer to prepare a supernatant by cooled centrifugation (9000 G).
The inhibiting activity against cyclooxygenase was measured by using the 9000 G supernatant as a source of cyclooxygenase in the presence of 1 mM epinephiline.

[4] = system: aggregation of the washed rabbit platelet by thrombin; experiment: Platelet aggregation inhibiting activity (washed rabbit platelet, thrombin); format: cell-based; settings: for IC50: Oryctolagus cuniculus, Platelet; for platelet aggregation inhibiting activity relative to Persantin: compared with Persantin (dipyridamole)
Procedure: Blood samples were collected from the auricular blood vessel of rabbits (white local breed), and washed platelets were prepared therefrom by the method of Baenziger et al. (N. L. Baenziger and P. W. Majerus, Methods Enzymol., 31, 149 to 155 (1974). The platelets were suspended in a 15 mM Tris-hydrochloric acid buffer with a final concentration of 6×10^8 cells/ml (Tris: tris(hydroxymethyl)aminomethane). Each test compound of the compound Nos. 5, 8, 9, 11, 23, 29, 30 and 33 and Persantin® was added thereto and incubation was carried out at 37° C. for 2 minutes. Then the platelets were stimulated by addition of thrombin (0.2 unit/ml of final concentration; made by Mochida Pharmaceutical Co.) and the aggregation inhibiting activity was estimated by the observation of the aggregation reaction using an aggregometer (made by Briston Co.).
The results are shown in Table 3 in terms of IC50 (50% inhibiton concentration in M).

[5] = range for nine compounds, read-out: concentration showing 50% inhibition against the aggregation of the washed rabbit platelet by thrombin
[6] = washed rabbit platelets, thrombin 0.2 unit/ml, 37° C., Table 3, read-out: IC50 (50% inhibition concentration in M)

Row | SMILES | LD50 at 336 h [1] [mg/kg] | death up to the dose of 3 g/kg body weight (mice) | IC50 [2] [µM] | IC50 [3] [µM] | inhibition against malondialdehyde production relative to aspirin (cyclooxygenase) | IC50 [4, 5] [µM] | IC50 [4, 6] [µM] | platelet aggregation inhibiting activity relative to Persantin [4] | death up to 2 g/kg body weight (mice)
1 | CCc1oc2ccc([N+](=O)[O-])cc2c1S(=O)(=O)NCC(=O)O [Compound 21, 2-ethyl-3-(N-carboxymethylsulfamoyl)-5-nitrobenzofuran] | > 3000 | no death | 0.05 |  |  |  |  |  | 
2 | COc1ccc(S(=O)(=O)NCC(=O)O)c2cc(C3(C)NC(=O)NC3=O)oc12 (centres unmarked) [Compound 19, 2-(4-methyl-2,5-dioxoimidazolidine-4-yl)-4-(N-carboxymethylsulfamoyl)-7-methoxybenzofuran] |  |  | 2 | 10 to 100 | equivalent to or more than |  |  |  | 
3 | COc1ccc(S(=O)(=O)NCC(=O)O)c2cc(C(=O)O)oc12 [Compound 13, 2-carboxy-4-(N-carboxymethylsulfamoyl)-7-methoxybenzofuran] |  |  | 0.1 | 10 to 100 | equivalent to or more than |  |  |  | 
4 | COc1ccc(COc2ccc(S(=O)(=O)N(CC(=O)O)Cc3ccc(OC)cc3)c3cc(C(C)=O)oc23)cc1 [Compound 33, 2-acetyl-4-(N-p-methoxybenzyl-N-carboxymethylsulfamoyl)-7-p-methoxybenzyloxybenzofuran] |  |  | 0.8 | 10 to 100 | equivalent to or more than | 20 to 200 | 20 | equivalent to or more than | 
5 | CCCOc1ccc(S(=O)(=O)NCC(=O)O)c2cc(C(C)=O)oc12 [Compound 3, 2-acetyl-4-(N-carboxymethylsulfamoyl)-7-n-propoxybenzofuran] | > 3000 | no death | 0.06 |  |  |  |  |  | 
6 | CCCCCCCOc1ccc(S(=O)(=O)NCC(=O)O)c2cc(C(C)=O)oc12 [Compound 7, 2-acetyl-4-(N-carboxymethylsulfamoyl)-7-n-heptyloxybenzofuran] |  |  | 0.03 |  |  |  | 150 |  | 
7 | CC(=O)c1cc2c(S(=O)(=O)NCC(=O)O)ccc(OCc3ccccc3)c2o1 [Compound 29, 2-acetyl-4-(N-carboxymethylsulfamoyl)-7-benzyloxybenzofuran] | > 2000 |  | 0.05 | 10 to 100 | equivalent to or more than | 20 to 200 | 35 | equivalent to or more than | no death
8 | CCCCOc1ccc(S(=O)(=O)NC(C)C(=O)O)c2cc(C(C)=O)oc12 (centres unmarked) [Compound 11, 2-acetyl-4-(N-(1-carboxyethyl)sulfamoyl)-7-n-butoxybenzofuran] |  |  | 5 |  |  | 20 to 200 | 160 | equivalent to or more than | 
9 | COc1c(S(=O)(=O)NCC(=O)O)cc(S(=O)(=O)NCC(=O)O)c2cc(C3(C)NC(=O)NC3=O)oc12 (centres unmarked) [Compound 20, 2-(4-methyl-2,5-dioxoimidazolidine-4-yl)-4,6-di(N-carboxymethylsulfamoyl)-7-methoxybenzofuran] |  |  | 0.3 | 10 to 100 | equivalent to or more than |  |  |  | 
10 | CCOc1ccc(S(=O)(=O)NCC(=O)O)c2cc(C(=O)O)oc12 [Compound 14, 2-carboxy-4-(N-carboxymethylsulfamoyl)-7-ethoxybenzofuran] |  |  | 0.07 | 10 to 100 | equivalent to or more than |  |  |  | 
11 | CC(=O)c1cc2c(S(=O)(=O)N(CC(=O)O)Cc3ccc(Cl)cc3)ccc(OCc3ccc(Cl)cc3)c2o1 [Compound 34, 2-acetyl-4-(N-p-chlorobenzyl-N-carboxymethylsulfamoyl)-7-p-chlorobenzyloxybenzofuran] | > 2000 |  | 0.8 |  |  |  |  |  | no death
12 | CC(=O)c1cc2c(S(=O)(=O)NCC(=O)O)ccc(OCC(=O)O)c2o1 [Compound 8, 2-acetyl-4-(N-carboxymethylsulfamoyl)-7-(carboxymethoxy)benzofuran] |  |  | 0.2 | 10 to 100 | equivalent to or more than | 20 to 200 | 130 | equivalent to or more than | 
13 | CCCCOc1ccc(S(=O)(=O)N(C)C(C)C(=O)O)c2cc(C(C)=O)oc12 (centres unmarked) [Compound 10, 2-acetyl-4-(N-methyl-N-(1-carboxyethyl)sulfamoyl)-7-n-butoxybenzofuran] |  |  | 7 |  |  | 20 to 200 | 160 | equivalent to or more than | 
14 | CC(=O)COc1ccc(S(=O)(=O)NCC(=O)O)c2cc(C(C)=O)oc12 [Compound 26, 2-acetyl-4-(N-carboxymethylsulfamoyl)-7-acetonyloxybenzofuran] | > 2000 |  | 0.2 |  |  |  |  |  | no death
15 | CCCCCOc1ccc(S(=O)(=O)NCC(=O)O)c2cc(C(C)=O)oc12 [Compound 5, 2-acetyl-4-(N-carboxymethylsulfamoyl)-7-n-pentyloxybenzofuran] | > 3000 | no death | 0.05 |  |  | 20 to 200 |  | equivalent to or more than | 
16 | CCCCOc1ccc(S(=O)(=O)N(C)CC(=O)O)c2cc(C(C)=O)oc12 [Compound 9, 2-acetyl-4-(N-methyl-N-carboxymethylsulfamoyl)-7-n-butoxybenzofuran] | > 3000 | no death | 1 |  |  | 20 to 200 | 600 | equivalent to or more than | 
17 | OCCN(CCO)c1nc(N2CCCCC2)c2nc(N(CCO)CCO)nc(N3CCCCC3)c2n1 [Persantin ®, dipyridamole, reference compound] |  |  |  |  |  |  | 200 |  | 
18 | CC(=O)c1cc2c(S(=O)(=O)NCC(=O)O)ccc(OCc3ccc(Cl)cc3)c2o1 [Compound 30, 2-acetyl-4-(N-carboxymethylsulfamoyl)-7-p-chlorobenzyloxybenzofuran] |  |  | 0.04 | 10 to 100 | equivalent to or more than | 20 to 200 | 30 | equivalent to or more than | 
19 | CC(=O)c1cc2c(S(=O)(=O)NCC(=O)O)ccc(OCc3ccc([N+](=O)[O-])cc3)c2o1 [Compound 23, 2-acetyl-4-(N-carboxymethylsulfamoyl)-7-p-nitrobenzyloxybenzofuran] | > 2000 |  | 0.05 | 10 to 100 | equivalent to or more than | 20 to 200 | 80 | equivalent to or more than | no death
